Measured values taken from the NIST ThermoML archive (doi:10.1016/j.jct.2015.05.024).

Assay: xn = mol fraction of the nth substance listed
Settings: 100 kPa, Liquid; for mass density: Vibrating tube method; for speed of sound: Frequency=5 MHz, Pulse-echo method

OCCOCCOCCO [triethylene glycol] + O
Settings | mass density [kg/m3] | speed of sound [m/s]
308.15 K, x1 = 0.4877 | 1107.17 | –
308.15 K, x1 = 0.5004 | 1107.43 | –
308.15 K, x1 = 0.5739 | 1108.68 | –
308.15 K, x1 = 0.58 | 1108.77 | –
308.15 K, x1 = 0.6465 | 1109.59 | –
308.15 K, x1 = 0.651 | 1109.63 | –
308.15 K, x1 = 0.7008 | 1110.12 | –
308.15 K, x1 = 0.7471 | 1110.49 | –
308.15 K, x1 = 0.7677 | 1110.64 | –
308.15 K, x1 = 0.82 | 1110.99 | –
308.15 K, x1 = 0.8623 | 1111.23 | –
308.15 K, x1 = 0.8792 | 1111.32 | –
308.15 K, x1 = 0.8975 | 1111.42 | –
308.15 K, x1 = 0.9203 | 1111.54 | –
308.15 K, x1 = 0.9514 | 1111.69 | –
308.15 K, x1 = 0.9692 | 1111.78 | –
308.15 K, x1 = 1 | 1111.92 | –
313.15 K, x1 = 0.00059 | – | 1530.8
313.15 K, x1 = 0.002696 | – | 1537.9
313.15 K, x1 = 0.006871 | – | 1551.2
313.15 K, x1 = 0.01006 | – | 1560.8
313.15 K, x1 = 0.0107 | 1003.69 | –
313.15 K, x1 = 0.01494 | – | 1574.7
313.15 K, x1 = 0.02047 | 1013.09 | –
313.15 K, x1 = 0.02274 | – | 1594.6
313.15 K, x1 = 0.02979 | – | 1610.7
313.15 K, x1 = 0.03584 | – | 1623
313.15 K, x1 = 0.03972 | 1028.97 | –
313.15 K, x1 = 0.04219 | – | 1634.6
313.15 K, x1 = 0.04979 | 1036.07 | –
313.15 K, x1 = 0.05045 | – | 1647.8
313.15 K, x1 = 0.05689 | – | 1656.8
313.15 K, x1 = 0.06687 | – | 1668.7
313.15 K, x1 = 0.06996 | 1048.19 | –
313.15 K, x1 = 0.07692 | – | 1678.3
313.15 K, x1 = 0.08288 | – | 1683
313.15 K, x1 = 0.09135 | – | 1688.6
313.15 K, x1 = 0.09262 | – | 1689.3
313.15 K, x1 = 0.09424 | 1059.72 | –
313.15 K, x1 = 0.1004 | – | 1693.3
313.15 K, x1 = 0.1079 | – | 1696.2
313.15 K, x1 = 0.116 | – | 1698.7
313.15 K, x1 = 0.1201 | – | 1699.6
313.15 K, x1 = 0.1232 | – | 1700.2
313.15 K, x1 = 0.1303 | – | 1701.1
313.15 K, x1 = 0.1343 | – | 1701.5
313.15 K, x1 = 0.1377 | – | 1701.6
313.15 K, x1 = 0.1423 | – | 1701.7
313.15 K, x1 = 0.1481 | 1076.91 | –
313.15 K, x1 = 0.1573 | – | 1701
313.15 K, x1 = 0.1723 | – | 1699
313.15 K, x1 = 0.1866 | – | 1696.2
313.15 K, x1 = 0.2006 | 1086.71 | –
313.15 K, x1 = 0.2037 | – | 1692.2
313.15 K, x1 = 0.2426 | – | 1681.2
313.15 K, x1 = 0.2502 | 1092.5 | –
313.15 K, x1 = 0.2794 | – | 1670.3
313.15 K, x1 = 0.2988 | 1096.26 | –
313.15 K, x1 = 0.3209 | – | 1658.6
313.15 K, x1 = 0.3492 | 1098.98 | –
313.15 K, x1 = 0.3925 | 1100.7 | –
313.15 K, x1 = 0.403 | – | 1638.8
313.15 K, x1 = 0.4502 | 1102.42 | –
313.15 K, x1 = 0.4658 | – | 1626
313.15 K, x1 = 0.4877 | 1103.29 | –
313.15 K, x1 = 0.5004 | 1103.55 | –
313.15 K, x1 = 0.5676 | – | 1608
313.15 K, x1 = 0.5739 | 1104.8 | –
313.15 K, x1 = 0.58 | 1104.89 | –
313.15 K, x1 = 0.6465 | 1105.71 | –
313.15 K, x1 = 0.651 | 1105.76 | –
313.15 K, x1 = 0.6969 | – | 1590.8
313.15 K, x1 = 0.7008 | 1106.24 | –
313.15 K, x1 = 0.7471 | 1106.61 | –
313.15 K, x1 = 0.7677 | 1106.76 | –
313.15 K, x1 = 0.82 | 1107.11 | –
313.15 K, x1 = 0.8623 | 1107.35 | –
313.15 K, x1 = 0.8694 | – | 1577.9
313.15 K, x1 = 0.8792 | 1107.44 | –
313.15 K, x1 = 0.9455 | – | 1572.9
313.15 K, x1 = 1 | – | 1569.1
